Assay results: US8592172B2, “Bioluminescent assays using cyanobenzothiazole compounds” (Promega Corporation, priority 2010, dated 2013)
Blank lines part the entries; values can stand above or below the molecule they belong to.

Tests used:
UGT isozymes = UGT isozymes currently reported in the literature; cited from earlier work
GST M1-1 = biological target: T1, GST M1-1 (Homo sapiens, UniProt P09488); assay: Utilization of benzothiazole substrate by GST M1-1; format: biochemical; details: 55 minutes at room temperature
T1 sequence (P09488 2-218 limits assumed): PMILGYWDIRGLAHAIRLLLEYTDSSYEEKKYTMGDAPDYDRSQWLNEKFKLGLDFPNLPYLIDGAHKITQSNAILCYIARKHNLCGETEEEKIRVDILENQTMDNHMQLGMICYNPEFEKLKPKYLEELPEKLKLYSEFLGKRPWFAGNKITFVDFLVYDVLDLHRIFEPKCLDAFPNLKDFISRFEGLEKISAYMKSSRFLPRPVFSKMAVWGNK
Procedure: (§1) Compound 934-37 was dissolved in DMSO to produce a solution approximately 1 mg/mL. This solution was diluted 1:100 (v/v) into 50 mM HEPES buffer pH 7.5 to produce a substrate solution (approximately 10 μg/ml). Twenty μL of this solution was placed in 10 wells of a 96 well, white luminometer plate (Promega part Z3291), 20 μL of a 1:3.1 dilution of the substrate (approximately 3.2 μg/ml) was placed into another 10 wells in the luminometer plate.
(§2) D-Cysteine, 4 mg (Sigma Chemical Corp.; C8005-1g, 017K1034) was dissolved into 1 mL of 50 mM HEPES buffer pH 7.5, then 4 μL added to 4 of the wells containing the substrate solution and 4 of the wells with diluted substrate solution to convert compound 934-37 to the corresponding luciferin derivative. The structures of these compounds are shown below.
A sample of GST M1-1 (1.2 mg/mL) and 100 μL of 100 mM glutathione was diluted into 5 mL of 50 mM HEPES pH 7.5, then 25 μL added to: two of the wells with unconverted, concentrated compound 934-37; 2 wells with concentrated and converted compound 934-37; and two of the wells with unconverted, diluted compound 934-37 and 2 of the wells with converted, diluted compound 934-37.
(§3) Glutathione (100 μL of 100 mM glutathione) had been diluted to 5 mL with 50 mM HEPES buffer pH 7.5, then 25 μL added to the remaining wells of converted and unconverted compound 934-37 in concentrated and diluted solution.
(§4) After 55 minutes at room temperature, 4 μL of the D-cysteine solution above was added to all wells that had not received cysteine before, then 50 μL of P450-Glo LDR was added. The plate was then placed into a GloMax luminometer (Promega Corp.), and the bioluminescence measured after 15 minutes of incubation. The values obtained were averaged, and the average value of the bioluminescence produced from the wells with no enzyme were then subtracted from the average of the bioluminescence produced in the wells with enzyme.

[1] = biological target: T2, glutathione S-transferase isoenzyme A1-1 (GST A1-1) (Homo sapiens, UniProt P08263); assay: Utilization of benzothiazole substrate by GST A1-1; format: biochemical; details: 55 minutes at room temperature
T2 sequence (P08263 1-222): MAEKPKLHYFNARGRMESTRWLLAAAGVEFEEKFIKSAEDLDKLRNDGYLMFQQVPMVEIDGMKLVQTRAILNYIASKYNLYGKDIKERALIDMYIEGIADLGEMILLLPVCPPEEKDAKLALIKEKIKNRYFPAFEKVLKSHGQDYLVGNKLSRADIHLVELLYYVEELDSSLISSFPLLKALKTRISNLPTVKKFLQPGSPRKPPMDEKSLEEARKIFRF
Procedure: as §1, §2
A sample of glutathione S-transferase isoenzyme A1-1 (GST A1-1) (1.2 mg/mL) and 100 μL of 100 mM glutathione in water was diluted into 5 mL of 50 mM HEPES pH 7.5, then 25 μL added to the plate as follows: 2 wells with unconverted, concentrated compound 934-37; 2 wells with concentrated and converted compound 934-37; 2 wells with unconverted, diluted compound 934-37; and 2 of the wells with converted, diluted compound 934-37.
as §3, §4

[2] = test system: CYP450 1A2 activity in human liver microsomes; assay: Human liver microsome assay with compound 3019; details: 1 μg HLM, 3 μM compound 3019, 10 minutes at 37° C.
Procedure: Equal volumes of P450-Glo LDR with 6.6 mM D-Cysteine was added into the CYP450 reactions.

[3] = concentrated substrate (approximately 10 μg/ml)
[4] = diluted substrate (approximately 3.2 μg/ml)

SMILES: C=C[C@H]1C[N@@]2CC[C@H]1C[C@@H]2[C@@H](O)c1ccnc2ccc(OC)cc12 [Quinidine]
- Isozymes Modulated (UGT isozymes): 2B7 and 2B15, others to a lesser extent

SMILES: O=c1ccc2ccc(O)cc2o1 [Umbelliferne]
- Isozymes Modulated (UGT isozymes): Substrate of most isozymes

- bioluminescence with GST M1-1 minus no enzyme (GST M1-1; [3]): 315,759 RLU
- bioluminescence with GST M1-1 minus no enzyme (GST M1-1; [4]): 213,920 RLU
- bioluminescence with GST A1-1 minus no enzyme [1, 3]: 6,410 RLU
- bioluminescence with GST A1-1 minus no enzyme [1, 4]: 6,462 RLU
SMILES: Cc1cc(S(=O)(=O)Oc2ccc3nc(C4=N[C@@H](C(=O)O)CS4)sc3c2)ccc1[N+](=O)[O-] [converted compound 934-37]

- inhibition of compound 3019 activity in human liver microsomes [2]: sensitive to inhibition
SMILES: O=c1cc(-c2ccccc2)oc2c1ccc1ccccc12 [α-naphthoflavone, reference compound]
